Reference: PMC7472660 (Chemical Science, 2019)

Target: prostate-specific membrane antigen (PSMA) (Homo sapiens, UniProt Q04609)
Assay: radioligand displacement of […]mTc-MIP-1427 on PSMA+ PC-3 PiP cells
Assay type: cell-based

Sequence of prostate-specific membrane antigen (PSMA) (Q04609 whole entry): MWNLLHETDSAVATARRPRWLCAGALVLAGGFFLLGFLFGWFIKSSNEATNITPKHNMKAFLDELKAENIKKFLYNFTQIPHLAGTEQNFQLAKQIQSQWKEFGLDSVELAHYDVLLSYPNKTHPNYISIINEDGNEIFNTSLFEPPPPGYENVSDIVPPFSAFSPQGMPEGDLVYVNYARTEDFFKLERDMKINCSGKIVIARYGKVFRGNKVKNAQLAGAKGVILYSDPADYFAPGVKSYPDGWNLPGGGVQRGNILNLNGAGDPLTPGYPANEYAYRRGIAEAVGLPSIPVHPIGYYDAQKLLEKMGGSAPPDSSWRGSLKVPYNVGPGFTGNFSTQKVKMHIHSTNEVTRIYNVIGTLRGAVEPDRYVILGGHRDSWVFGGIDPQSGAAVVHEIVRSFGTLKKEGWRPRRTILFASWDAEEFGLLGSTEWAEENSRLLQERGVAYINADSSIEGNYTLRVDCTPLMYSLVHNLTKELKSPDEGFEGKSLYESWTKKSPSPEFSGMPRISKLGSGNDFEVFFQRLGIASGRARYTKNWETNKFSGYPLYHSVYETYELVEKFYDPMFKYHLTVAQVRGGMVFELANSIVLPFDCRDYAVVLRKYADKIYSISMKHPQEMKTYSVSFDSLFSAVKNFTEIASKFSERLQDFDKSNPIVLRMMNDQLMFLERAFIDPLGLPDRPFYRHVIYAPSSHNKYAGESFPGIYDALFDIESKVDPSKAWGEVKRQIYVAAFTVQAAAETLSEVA

| Ki | Substance |
| --- | --- |
| 222 ± 186 nM | Sc(DOTA)-DUPA |
| 1.6 ± 0.4 nM | Sc(picaga)-DUPA |
